{"source": "paper PMC5632533", "about": "“Mechanisms of action and in vivo antibacterial efficacy assessment of five novel hybrid peptides derived from Indolicidin and Ranalexin against Streptococcus pneumoniae” (PeerJ, 2017)", "key": {"ICR (CD-1) mice": {"tested_on": "ICR (CD-1) mice", "assay": "In vivo toxicity in mice (SC, IN, IP routes)", "set-up": "Aspartate aminotransferase, AST / Alanine transaminase, ALT / Alkaline phosphatase, ALP / Creatinine / Urea / Total bilirubin: unit not given here", "conditions": "for Eosinophil / Erythrocytes, RBC / Hematocrit, HCT / Hemoglobin Hgb / Lymphocytes / Mean corpuscular haemoglobin concentration, MCHC / Mean corpuscular haemoglobin, MCH / Mean corpuscular volume, MCV / Monocytes / White blood cells, WBC / platelet Counts, PLT / Granulocytes / Alanine transaminase, ALT / Alkaline phosphatase, ALP / Aspartate aminotransferase, AST / Creatinine / Total bilirubin / Urea: 3 doses (1hr, 12hr, 24hr), RN7-IN9, RN7-IN6 10 mg/kg, day 7, mean±SD, 4 mice; for Alanine transaminase, ALT / Alkaline phosphatase, ALP / Aspartate aminotransferase, AST / Creatinine / Total bilirubin / Urea: serum", "protocol": "In this study, 4-week old male, pathogen free ICR (CD-1) mice were purchased from InVivos (Lim Chu Kang, Singapore) and used to assess the in vivo toxicity and antibacterial efficacy of the novel peptides, as these animals are by far the most commonly used model for the study of pneumococcal disease ([Chiavolini, Pozzi & Ricci, 2008]). The mice were kept in ventilated polycarbonate cages (12 h light/dark cycle, 20 ± 2 °C and 55% relative humidity). All mice were familiarized for seven days before any experimental procedure and were given unlimited pellets and water ad libitum. All animal experimentations were conducted according to the guidelines approved by Faculty of Medicine Institutional Animal Care and Use Committee (FOM IACUC), University of Malaya (ethics Reference no. : 2013-07-15/MMBTR/SDS).\nIn order to evaluate the possible toxic effects correlated to peptides administered in mice, four hybrid peptides RN7-IN10, RN7-IN9, RN7-IN8 and RN7-IN6 were chosen for in vivo toxicity assessment, due to their promising in vitro antibacterial activity ([Jindal et al., 2015]). Mice were separated into four groups (each with four mice) and were injected with respective peptides at 1 h, 12 h, and 24 h (three-dose regimen) via IP, SC, and IN administration routes. The hybrid peptides were first administered at high doses (100 mg/kg for IP route, 100 mg/kg for SC routes and 20 mg/kg for IN route). Any abnormal behavior was recorded and survival of mice was noted as well. In case adverse effects such as high physical stress, severe lethargy, physical inactiveness, and/or death were detected, lower graded doses were given. All the administered mice were monitored for seven days or until death occurred. At day seven post administration, all animals were sacrificed and blood and organs were collected. Untreated mice were used as a control group.\nMice used to evaluate the in vivo toxicity and antibacterial activity of the hybrid peptides using the subcutaneous (SC) and intranasal (IN) administration routes, were anesthetized using a combination of a standard dose of xylazine (ilium xylazil-20, 10 mg/kg) and ketamine (Narketan®-10, 100 mg/kg) through intraperitoneal (IP) injection. After seven days of treatment, the in vivo toxicity and antibacterial efficacy experiments were ended and the surviving mice were anesthetized. Blood samples for Hematological and biochemical analysis were collected via cardiac puncture using a 25G syringe (BD bioscience, San Jose, CA, USA). Whole blood for heamatological analysis was collected in 500 µl dipotassium EDTA microtainer tubes (BD Bioscience, USA). About 500 µl of blood collected an eppedorff tube and centrifuged at 8000 rpm for 5 min and then the serum was transferred into a new 1.5 ml tube for biochemistry analysis. The mice were then euthanized by cervical dislocation, dissected and the following organs were collected for histopathology evaluation: lung, kidney, brain, liver and spleen.\nFor whole blood analysis, the parameters were number of red cells (RBC), number of white cells (WBC), lymphocytes, monocytes, eosinophil, granulocytes, haemoglobin (Hgb), mean corpuscular volume (MCV), hematocrit (HCT), platelet Counts (PLT), Mean corpuscular haemoglobin (MCH) and corpuscular haemoglobin concentration (MCHC). For biochemistry analysis, the parameters were alanine transaminase (ALT), creatinine, alkaline phosphatase (ALP), aspartate aminotransferase (AST), total bilirubin and urea.\nThe following organs were collected from all the dissected mice: lung, kidney, brain, spleen, and liver. All tissues were fixed in 10% (v/v) buffered formalin and processed for paraffin embedding. Hematoxylin–eosin (HE) was used to stain the histological sections at the histopathology laboratory, Veterinary Laboratory Service Unit, University Putra Malaysia (UPM)."}, "S. pneumoniae": {"tested_on": "S. pneumoniae", "assay": "ATP efflux assay", "format": "cell-based, Streptococcus pneumoniae", "conditions": "1 × 10^7 CFU/ml; peptides 125 µg/ml (RN7-IN7 500 µg/ml); luciferin/luciferase, ATP standard curve; mean ± SD, three independent experiments", "protocol": "The amount of ATP released from pneumococcal cells incubated with hybrid peptides was measured as described previously, with a slight modification ([Tanida et al., 2006]). The ATP determination kit (Molecular Probes, Eugene, OR, USA) was used to measure the amount of ATP released based on the luciferin/luciferase method according to the manufacturer’s instructions. Briefly, S. pneumoniae were grown overnight on Columbia agar with 5% sheep blood. Bacterial suspensions were spectrophotometrically adjusted to (1 × 10^7 CFU/ml) and incubated with hybrid peptides RN7-IN10, RN7-IN9, RN7-IN8 and RN7-IN6 at 125 µg/ml and with RN7-IN7 at 500 µg/ml. The amount of ATP released form the pneumococcal cells were measured at three time points 1, 2 and 3 h. The samples were then centrifuged at 5,000 rpm for 5 min, and ATP efflux was subsequently estimated using an ATP standard curve. Values were obtained from three independent experiments. Ceftriaxone and erythromycin were used as positive controls."}, "[1]": {"conditions": "IN, head doses: RN7-IN10, RN7-IN8 20 mg/kg"}, "[2]": {"conditions": "SC, head doses: RN7-IN10, RN7-IN8 20 mg/kg"}}, "data": [{"substance": "FLGGLIKWWPWRR-NH2 [RN7-IN6, hybrid peptide of ranalexin (residues 1-7) and indolicidin (residues 8-13)]", "values": [{"measurement": "Eosinophil", "setting": "ICR (CD-1) mice; [1]", "value": "3.5±0.9", "unit": "%"}, {"measurement": "Erythrocytes, RBC", "setting": "ICR (CD-1) mice; [1]", "value": "9.12±0.25 10^6/mm^3"}, {"measurement": "Hematocrit, HCT", "setting": "ICR (CD-1) mice; [1]", "value": "47.43±0.61", "unit": "%"}, {"measurement": "Hemoglobin Hgb", "setting": "ICR (CD-1) mice; [1]", "value": "15 ± 0.28", "unit": "g/dL"}, {"measurement": "Lymphocytes", "setting": "ICR (CD-1) mice; [1]", "value": "47.67±12.2", "unit": "%"}, {"measurement": "Mean corpuscular haemoglobin concentration, MCHC", "setting": "ICR (CD-1) mice; [1]", "value": "31.7 ± 0.21", "unit": "g/dL"}, {"measurement": "Mean corpuscular haemoglobin, MCH", "setting": "ICR (CD-1) mice; [1]", "value": "16.5 ± 0.17", "unit": "pg"}, {"measurement": "Mean corpuscular volume, MCV", "setting": "ICR (CD-1) mice; [1]", "value": "52.66±1.24", "unit": "µm^3"}, {"measurement": "Monocytes", "setting": "ICR (CD-1) mice; [1]", "value": "2.7±0.57", "unit": "%"}, {"measurement": "White blood cells, WBC", "setting": "ICR (CD-1) mice; [1]", "value": "3.6±0.35 10^3/mm^3"}, {"measurement": "platelet Counts, PLT", "setting": "ICR (CD-1) mice; [1]", "value": "597.66±123.23 10^3/mm^3"}, {"measurement": "Eosinophil", "setting": "ICR (CD-1) mice; IP, RN7-IN10, RN7-IN8 20 mg/kg", "value": "3.22±1.47", "unit": "%"}, {"measurement": "Erythrocytes, RBC", "setting": "ICR (CD-1) mice; IP, RN7-IN10, RN7-IN8 20 mg/kg", "value": "8.71±0.44 10^6/mm^3"}, {"measurement": "Granulocytes", "setting": "ICR (CD-1) mice; IP, RN7-IN10, RN7-IN8 20 mg/kg", "value": "57.87±11.66", "unit": "%"}, {"measurement": "Hematocrit, HCT", "setting": "ICR (CD-1) mice; IP, RN7-IN10, RN7-IN8 20 mg/kg", "value": "44.97±1.75", "unit": "%"}, {"measurement": "Hemoglobin Hgb", "setting": "ICR (CD-1) mice; IP, RN7-IN10, RN7-IN8 20 mg/kg", "value": "15.02 ± 0.59", "unit": "g/dL"}, {"measurement": "Lymphocytes", "setting": "ICR (CD-1) mice; IP, RN7-IN10, RN7-IN8 20 mg/kg", "value": "54.6±3.8", "unit": "%"}, {"measurement": "Mean corpuscular haemoglobin concentration, MCHC", "setting": "ICR (CD-1) mice; IP, RN7-IN10, RN7-IN8 20 mg/kg", "value": "33.42 ± 0.62", "unit": "g/dL"}, {"measurement": "Mean corpuscular haemoglobin, MCH", "setting": "ICR (CD-1) mice; IP, RN7-IN10, RN7-IN8 20 mg/kg", "value": "16.67 ± 1.07", "unit": "pg"}, {"measurement": "Mean corpuscular volume, MCV", "setting": "ICR (CD-1) mice; IP, RN7-IN10, RN7-IN8 20 mg/kg", "value": "50.5±1.29", "unit": "µm^3"}, {"measurement": "Monocytes", "setting": "ICR (CD-1) mice; IP, RN7-IN10, RN7-IN8 20 mg/kg", "value": "2.53±0.33", "unit": "%"}, {"measurement": "White blood cells, WBC", "setting": "ICR (CD-1) mice; IP, RN7-IN10, RN7-IN8 20 mg/kg", "value": "4.1±0.72 10^3/mm^3"}, {"measurement": "platelet Counts, PLT", "setting": "ICR (CD-1) mice; IP, RN7-IN10, RN7-IN8 20 mg/kg", "value": "540.75±107.41 10^3/mm^3"}, {"measurement": "maximum IP dose at which no signs of stress or abnormal behavior were evident (non-toxic dose)", "setting": "ICR (CD-1) mice; IP, doses at 1 h, 12 h, 24 h, no death up to seven days", "value": 10, "unit": "mg/kg"}, {"measurement": "Eosinophil", "setting": "ICR (CD-1) mice; [2]", "value": "2.7±0.71", "unit": "%"}, {"measurement": "Erythrocytes, RBC", "setting": "ICR (CD-1) mice; [2]", "value": "9.59±0.92 10^6/mm^3"}, {"measurement": "Granulocytes", "setting": "ICR (CD-1) mice; [2]", "value": "51.12±5.16", "unit": "%"}, {"measurement": "Hematocrit, HCT", "setting": "ICR (CD-1) mice; [2]", "value": "49.2±4.43", "unit": "%"}, {"measurement": "Hemoglobin Hgb", "setting": "ICR (CD-1) mice; [2]", "value": "16.17 ± 1.44", "unit": "g/dL"}, {"measurement": "Lymphocytes", "setting": "ICR (CD-1) mice; [2]", "value": "51.85±3.3", "unit": "%"}, {"measurement": "Mean corpuscular haemoglobin concentration, MCHC", "setting": "ICR (CD-1) mice; [2]", "value": "32.87 ± 0.42", "unit": "g/dL"}, {"measurement": "Mean corpuscular haemoglobin, MCH", "setting": "ICR (CD-1) mice; [2]", "value": "16.85 ± 0.3", "unit": "pg"}, {"measurement": "Mean corpuscular volume, MCV", "setting": "ICR (CD-1) mice; [2]", "value": "50±1.82", "unit": "µm^3"}, {"measurement": "Monocytes", "setting": "ICR (CD-1) mice; [2]", "value": "2.8±0.25", "unit": "%"}, {"measurement": "White blood cells, WBC", "setting": "ICR (CD-1) mice; [2]", "value": "3.86±0.34 10^3/mm^3"}, {"measurement": "Alanine transaminase, ALT", "setting": "ICR (CD-1) mice; [1]", "value": "43.2±7.56"}, {"measurement": "Alkaline phosphatase, ALP", "setting": "ICR (CD-1) mice; [1]", "value": "138.33±5.5"}, {"measurement": "Aspartate aminotransferase, AST", "setting": "ICR (CD-1) mice; [1]", "value": "140±7.2"}, {"measurement": "Creatinine", "setting": "ICR (CD-1) mice; [1]", "value": "40.15±3.6"}, {"measurement": "Total bilirubin", "setting": "ICR (CD-1) mice; [1]", "value": "1.95±0.08"}, {"measurement": "Urea", "setting": "ICR (CD-1) mice; [1]", "value": "10.14±1.52"}, {"measurement": "Alkaline phosphatase, ALP", "setting": "ICR (CD-1) mice; IP, RN7-IN10, RN7-IN8 20 mg/kg", "value": "114.97±24.9"}, {"measurement": "Aspartate aminotransferase, AST", "setting": "ICR (CD-1) mice; IP, RN7-IN10, RN7-IN8 20 mg/kg", "value": "176±19.31"}, {"measurement": "Creatinine", "setting": "ICR (CD-1) mice; IP, RN7-IN10, RN7-IN8 20 mg/kg", "value": "41.47±4.2"}, {"measurement": "Total bilirubin", "setting": "ICR (CD-1) mice; IP, RN7-IN10, RN7-IN8 20 mg/kg", "value": "2.1±0.1"}, {"measurement": "Urea", "setting": "ICR (CD-1) mice; IP, RN7-IN10, RN7-IN8 20 mg/kg", "value": "8.97±1.17"}, {"measurement": "Alanine transaminase, ALT", "setting": "ICR (CD-1) mice; [2]", "value": "43.32±10.3"}, {"measurement": "Alkaline phosphatase, ALP", "setting": "ICR (CD-1) mice; [2]", "value": "106.56±20.1"}, {"measurement": "Aspartate aminotransferase, AST", "setting": "ICR (CD-1) mice; [2]", "value": "158.25±18.9"}, {"measurement": "Creatinine", "setting": "ICR (CD-1) mice; [2]", "value": "34.89±0.25"}, {"measurement": "Total bilirubin", "setting": "ICR (CD-1) mice; [2]", "value": "2.03±0.14"}, {"measurement": "Urea", "setting": "ICR (CD-1) mice; [2]", "value": "9.07±2.02"}, {"measurement": "ATP released from pneumococcal cells after 1 h", "setting": "S. pneumoniae", "value": "14.8 ± 0.35", "unit": "pM"}, {"measurement": "ATP released from pneumococcal cells after 3 h", "setting": "S. pneumoniae", "value": "11.47 ± 0.32", "unit": "pM"}]}]}
